According to article PMC7582822, “Constituents of Coreopsis lanceolata Flower and Their Dipeptidyl Peptidase IV Inhibitory Effects” (Molecules, 2020):
Read-outs that look alike come from different tables or passages of the source.

Target: T1, human recombinant DPP-IV enzyme (Homo sapiens, UniProt P27487)
T1 construct: purchased Cayman Chemical
Assay: DPP-IV inhibitor screening assay (Cayman kit, fluorogenic H-Gly-Pro-AMC substrate)
Assay type: biochemical
Conditions: for DPP-IV inhibitory effect (in words): isolates tested up to 100 μM
Method: Briefly, a DDP assay buffer consisting of 20 mM Tris-HCL (pH 8.0), […] and 1 mM EDTA was used for the assay solution. Each of the compounds were initially dissolved in DMSO at a concentration of 1 mM. Subsequently, the final concentration of compounds was diluted to 0.1, 1, 10, 25, 50 and 100 μM, respectively. The human recombinant DPP-IV enzyme and the substrate 5 mM H-Gly-Pro conjugated to aminomethylcoumarin (AMC) were put in the same buffer. Diluted assay buffer (30 μL) and diluted enzyme solution (10 μL) were added to a 96-well plate containing 10 μL of solvent (blank) or 10 μL of solvent-dissolved test compounds. The reaction by adding 50 μL of the diluted solution of the fluorogenic substrate was initiated and cleavage of the peptide bond by DPP released the free AMC group. The fluorescence was measured as an excitation wavelength of 350 nm and an emission wavelength of 450 nm using a plate reader (TECAN, Männedorf, Switzerland). The percentage inhibition was expressed as [(DPP-IV level of vehicle-treated control−DPP-IV level of test samples)/DPP-IV level of vehicle-treated control] × 100. Subsequently, the 50% inhibitory concentration (IC50) was determined using GraphPad Prism software (GaraphPad Software, La Jolla, CA, USA) via a dose–response analysis.

[1] = in vitro, compounds at 0.1-100 μM, values in text, read-out: IC50, inhibition of DPP-IV activity

T1 sequence (P27487 whole entry): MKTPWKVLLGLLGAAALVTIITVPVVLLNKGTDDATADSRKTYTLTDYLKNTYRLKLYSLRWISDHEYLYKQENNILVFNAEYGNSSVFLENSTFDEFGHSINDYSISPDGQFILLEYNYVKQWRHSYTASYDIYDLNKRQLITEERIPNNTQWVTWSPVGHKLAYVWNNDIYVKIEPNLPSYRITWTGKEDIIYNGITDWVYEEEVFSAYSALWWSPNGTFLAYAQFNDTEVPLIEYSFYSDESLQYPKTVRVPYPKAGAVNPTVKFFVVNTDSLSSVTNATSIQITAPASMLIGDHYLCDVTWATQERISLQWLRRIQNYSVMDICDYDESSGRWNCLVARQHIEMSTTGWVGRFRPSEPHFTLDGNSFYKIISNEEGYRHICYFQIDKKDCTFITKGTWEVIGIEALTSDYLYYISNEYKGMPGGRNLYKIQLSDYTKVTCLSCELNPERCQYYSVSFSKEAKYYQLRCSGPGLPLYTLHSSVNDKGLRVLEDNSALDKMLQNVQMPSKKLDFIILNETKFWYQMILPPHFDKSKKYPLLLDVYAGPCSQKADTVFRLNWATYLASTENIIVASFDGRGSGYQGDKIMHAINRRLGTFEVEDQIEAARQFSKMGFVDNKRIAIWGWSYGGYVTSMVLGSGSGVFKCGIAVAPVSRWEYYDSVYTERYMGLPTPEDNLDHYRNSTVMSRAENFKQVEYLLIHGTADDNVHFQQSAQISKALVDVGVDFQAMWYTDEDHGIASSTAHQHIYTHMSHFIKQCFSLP

| DPP-IV inhibitory effect (in words) | IC50 [1] [µM] | IC50 (dose-response curves, mean ± SD of three independent experiments, read-out: IC50, effect on DPP-IV activity (Figure 3)) [µM] | Compound |
| --- | --- | --- | --- |
| did not show their activities | – | – | O=c1cc(-c2ccc(O)c(O)c2)oc2cc(O)cc(O)c12 [Compound 8, luteolin] |
| moderate | 13.3 | – | COc1c(O)ccc2c1O/C(=C\c1ccc(O)c(O)c1)C2=O [Compound 6, leptosidin] |
| did not show their activities | – | – | C/C=C/C#CC#CCCCO[C@@H]1O[C@H](CO)[C@@H](O)[C@H](O)[C@H]1O [Compound 10, bidenoside C] |
| did not show their activities | – | – | C=C[C@H](O)[C@H](/C=C/C#CC#CC#CC)O[C@@H]1O[C@H](CO)[C@@H](O)[C@H](O)[C@H]1O [Compound 11, (3S,4S)-5E-trideca-1,5-dien-7,9,11-triyne-3,4-diol-4-O-β-glucopyranoside] |
| did not show their activities | – | – | O=c1c(O)c(-c2ccc(O)c(O)c2)oc2cc(O)cc(O)c12 [Compound 9, quercetin] |
| – | 9.6 | 9.55 | COc1c(O)ccc(C(=O)/C=C/c2ccc(O)c(O)c2)c1O [Compound 2, lanceoletin] |
| – | 14.3 | – | COc1ccc(C=CC(=O)c2ccc(OC3OC(CO)C(O)C(O)C3O)c(OC)c2O)cc1O (stereo not shown) [Compound 3, 3,2′-dihydroxy-4-3′-dimethoxychalcone-4′-glucoside] |
| moderate | 64.9 | – | COc1c(O)ccc2c1O[C@@H](c1ccc(O)c(O)c1)CC2=O [Compound 7, (2R)-8-methoxybutin] |
| – | 21.6 | – | COc1ccc(/C=C/C(=O)c2ccc(O)c(OC)c2O)cc1O [Compound 4] |

| Compound | DPP-IV inhibitory effect (in words) | IC50 [1] [µM] | IC50 (dose-response curves, mean ± SD of three independent experiments, read-out: IC50, effect on DPP-IV activity (Figure 3)) [µM] |
| --- | --- | --- | --- |
| CC#CC#CC#C/C=C/[C@@H](CCCCO)O[C@@H]1O[C@H](CO)[C@@H](O)[C@H](O)[C@H]1O [Compound 1, (5R)-6E-tetradecene-8,10,12-triyne-1-ol-5-O-β-glucoside] | did not show their activities | – | – |
